Assays:
[1] = system: exon and intron 23 of the dystrophin gene; assay: Example 2: systemic intravenous injection, RT-PCR of exon skipping; type: in vivo, mdx mice; conditions: intravenous 25, 50 and 100 mg/kg; gastrocnemius and abdominal muscles, not other muscles
Description: (§1) To develop AO splice correction therapy for DMD it is essential to establish effective systemic dystrophin correction since DMD is a systemic disease affecting all skeletal muscles, including the diaphragm, and cardiac muscle. Other AO chemistries, including 2′OMePS and PMO chemistries, have been reported to yield variable dystrophin splice correction following intravenous systemic delivery in mdx mice, with high systemic doses being required to detect appreciable efficacy. Here we wished to evaluate the potential of neutral PNA AOs for systemic splice correction in body-wide muscles, and initially evaluated a dose-response using three intravenous single PNA doses of 25, 50 and 100 mg/kg administered to 6 week old mdx mice via tail vein injections. Dystrophin expression was studied by immunostaining of muscle tissue sections from various peripheral muscles (including quadriceps, gastrocnemius, biceps, abdominal wall, diaphragm) and heart muscle three weeks after AO administration (FIG. 7A). […] Measures of phenotypic correction, including serum biochemical measurements of creatine kinase and AST/ALT enzyme levels were negative (FIGS. 7C and D).
Total RNA was extracted from tested muscle tissues with Trizol (Invitrogen, UK) and 200 ng of RNA template was used for 20 μl RT-PCR with OneStep RT-PCR kit (Qiagen, UK). […]

[2] = system: exon and intron 23 of the dystrophin gene; assay: Example 3: intramuscular injection of glucose-formulated AOs, dystrophin-positive myofibres by immunohistochemistry; type: in vivo; conditions: intramuscular into TA, 8 week old mdx mice, two weeks
Experimental: Here we study a novel delivery glucose formulation by evaluating it via local intramuscular injection into the mdx mouse tibialis anterior (TA) muscle. Initial experiments were performed in 6-8 week old mdx mice (referred to as 8 weeks) by treatment with a single dose of 5 ug of 2′OMePS AO formulated in 5% glucose. In a parallel control study, age-matched control mdx mice were treated with the same AO dose formulated in standard saline buffer.
For intramuscular studies the TA muscle of each experimental mdx mouse was injected with a 40 μl dose of PNA and PNA-peptide conjugates with saline at a final concentration of 125 μg/ml, and the contralateral muscle was injected with saline. […]
Sections of 8 μm were cut from at least two-thirds of the muscle length of TA, quadriceps, gastrocnemius, biceps, abdominal wall and diaphragm muscles and cardiac muscle at 100 μm intervals. […] The maximum number of dystrophin-positive fibres in one section was counted using the Zeiss AxioVision fluorescence microscope. […] Polyclonal antibodies were detected by goat-anti-rabbit IgGs Alexa Fluro 594 (Molecular Probe, UK). […] Polyclonal antibodies were detected by goat-anti-rabbit IgGs Alexa 594 and the monoclonal antibodies by goat-anti-mouse IgGs Alexa 594 (Molecular Probe, UK). […]

[3] = system: exon and intron 23 of the dystrophin gene; assay: Example 2: intramuscular injection, nested RT-PCR of exon skipping; type: in vivo, mdx mice; conditions: 5 ug intramuscular, 4 weeks after injection (peak)
Experimental: Total RNA was extracted from tested muscle tissues with Trizol (Invitrogen, UK) and 200 ng of RNA template was used for 20 μl RT-PCR with OneStep RT-PCR kit (Qiagen, UK). The primer sequences for the initial RT-PCR were Exon20Fo 5′-[…]-3′ and Ex26Ro 5′-[…]-3′ for amplification of messenger RNA from exons 20 to 26. The cycle conditions were 95° C. for 30 seconds, 55° C. for 1 minute and 72° C. for 2 minutes for 25 cycles. RT-PCR product (1 μl) was then used as the template for secondary PCR performed in […] with 0.5 U Taq DNA polymerase (Invitrogen, UK). The primer sequences for the second round were Ex20Fi 5′-[…]-3′ and Ex24Ri 5′-[…]-3. The cycle conditions were 95° C. for 1 minute, 57° C. for 1 minute, and 72° C. for 2 min for 25 cycles. The products were examined by electrophoresis on a 2% agarose gel.
For intramuscular studies the TA muscle of each experimental mdx mouse was injected with a […] dose of PNA and PNA-peptide conjugates with saline at a final concentration of 125 μg/ml. For systemic intravenous injections, Various amount of PNA or PNA-peptide conjugates in 80 μl saline buffer were injected into tail vein of mdx mice at the final dose of 25 mg/kg, 50 mg/kg and 100 mg/kg, respectively. The animals were killed at various time points after injection by CO2 inhalation and tissues were removed and snap-frozen in liquid nitrogen-cooled isopentane and stored at −80° C.

[4] = Example 2: serum creatine kinase and AST/ALT after systemic injection; type: in vivo, mdx mice; conditions: intravenous 25, 50 and 100 mg/kg
Description: as §1
Serum and plasma were taken from the mouse jugular vein immediately after the killing with CO2 inhalation. […]

[5] = system: exon and intron 23 of the dystrophin gene; assay: Example 2: systemic intravenous tail vein injection, dystrophin immunostaining of muscles; type: in vivo, mdx mice
Description: To develop AO splice correction therapy for DMD it is essential to establish effective systemic dystrophin correction since DMD is a systemic disease affecting all skeletal muscles, including the diaphragm, and cardiac muscle. Other AO chemistries, including 2′OMePS and PMO chemistries, have been reported to yield variable dystrophin splice correction following intravenous systemic delivery in mdx mice, with high systemic doses being required to detect appreciable efficacy. Here we wished to evaluate the potential of neutral PNA AOs for systemic splice correction in body-wide muscles, and initially evaluated a dose-response using three intravenous single PNA doses of 25, 50 and 100 mg/kg administered to 6 week old mdx mice via tail vein injections. […]
Sections of 8 μm were cut from at least two-thirds of the muscle length of TA, quadriceps, gastrocnemius, biceps, abdominal wall and diaphragm muscles and cardiac muscle at 100 μm intervals. […] The maximum number of dystrophin-positive fibres in one section was counted using the Zeiss AxioVision fluorescence microscope. […] Polyclonal antibodies were detected by goat-anti-rabbit IgGs Alexa Fluro 594 (Molecular Probe, UK). Polyclonal antibodies were detected by goat-anti-rabbit IgGs Alexa 594 (Molecular Probe, UK).

Substance: 5′-ggccaaaccteggcttacct-3′ [PNA]
- exon skipping (RT-PCR) [1]: only very level of exon skipping
- dystrophin-positive myofibres, 5% glucose formulation compared with saline formulation [2]: significant improvement
- targeted dystrophin transcripts showing splice correction (RT-PCR) [3]: about 50%
- phenotypic correction: serum creatine kinase and AST/ALT enzyme levels [4]: negative
- dose response of dystrophin positive fibres ([5]; intravenous 25, 50 and 100 mg/kg): No evidence of a dose response
- number of dystrophin positive fibres in peripheral muscles and heart ([5]; single intravenous 25, 50 and 100 mg/kg, 6 week old mdx mice, three weeks, all muscle groups except diaphragm and heart): low nevertheless showing a significant increase
